Activity calls are given as the source filed them. No rule for the calls is given here.
target: Serine/threonine-protein kinase mTOR (Homo sapiens) (UniProt P42345); assay: mTOR FRB domain ligand binding – biophysical, NMR (AID 1648); conditions: NMR binding to FRB domain, chemical shift
Sequence (P42345 2015-2114): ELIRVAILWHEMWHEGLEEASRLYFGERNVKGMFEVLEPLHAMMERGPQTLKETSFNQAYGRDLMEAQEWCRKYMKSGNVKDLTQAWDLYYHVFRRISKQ

Row | SMILES | Kd
1 | Nc1ccccc1N1CCOCC1 | > 4 mM (inactive)
2 | O=C(O)c1ccc(N2CCOCC2)nc1 | > 4 mM (inactive)
3 | O=c1cc(O)nc(SCc2ccccc2)[nH]1 | > 4 mM (inactive)
4 | COC(=O)C1=CCCN(C)C1 | > 4 mM (inactive)
5 | O=C(O)c1cc(=O)[nH]c2ccccc12 | > 4 mM (inactive)
6 | COC(=O)CC1SC(=O)NC1=O (stereo not drawn) | > 4 mM (inactive)
7 | O=C1CSC(c2ccc3c(c2)OCO3)N1 (stereo not drawn) | > 4 mM (inactive)
8 | CCn1cnc2sc(C(=O)O)c(C)c2c1=O | > 4 mM (inactive)
9 | Cc1nc(-c2ccc(NS(C)(=O)=O)cc2)cs1 | > 4 mM (inactive)
10 | CC(CCC(=O)O)[C@H]1CCC2C3CC[C@@H]4C[C@H](O)CC[C@]4(C)C3CC[C@@]21C (stereo partly drawn) | > 4 mM (inactive)
11 | CN1CCN(CC(=O)Nc2ccccc2)CC1 | > 4 mM (inactive)
12 | Cc1n[nH]c(=S)n1-c1ccc(C(=O)O)cc1 | > 4 mM (inactive)
13 | CC(=O)Nc1nc2c(s1)C(=O)NCCC2 | > 4 mM (inactive)
14 | CCC(C)C(=O)O[C@@H]1C[C@@]2(C)[C@H](c3ccoc3)OC(=O)CC23OC2(C)OC34[C@H](OC(=O)C(C)C)[C@@]3(O)[C@@H](OC(=O)C5(C)OC5C)[C@@]5(C)C[C@]3(O)[C@@](C)([C@H]5CC(=O)OC)C14O2 (stereo partly drawn) | > 4 mM (inactive)
15 | CC(O)C(=O)N/N=C/c1ccccc1 (stereo not drawn) | > 4 mM (inactive)
16 | CC1(C)Cc2c(c(-c3ccco3)[nH]c(=O)c2C#N)CO1 | > 4 mM (inactive)
17 | Cc1nnc(SCC(=O)NCc2ccccc2)[nH]c1=O | > 4 mM (inactive)
18 | Cc1cccc(-n2c(N)cc(=O)[nH]c2=S)c1 | > 4 mM (inactive)
19 | Cc1oc(S(=O)(=O)N2CCCCC2)cc1C(=O)O | > 4 mM (inactive)
20 | O=C(O)c1[nH]nc2c1COc1ccccc1-2 | > 4 mM (inactive)
21 | Cc1nc2cc(Cl)ccc2n1CCO | > 4 mM (inactive)
22 | NC(N)=NOCC[C@H](N)C(=O)O | > 4 mM (inactive)
23 | COc1ccc(-c2coc3c(OC)c(OC)cc(OC)c3c2=O)cc1 | > 4 mM (inactive)
24 | COC(=O)C(O)[C@@H]1C2(C)C(=O)[C@@H](CC3=C4CC(=O)O[C@@H](c5ccoc5)[C@]4(C)CCC32)[C@H](OC(C)=O)C1(C)C (stereo partly drawn) | > 4 mM (inactive)

Row | SMILES | Kd
25 | CCC(=O)NC(=S)Nc1ccc(N2CCOCC2)cc1 | > 4 mM (inactive)
26 | CSc1ccccc1NC(=O)c1ccoc1C | > 4 mM (inactive)
27 | Cc1ccc(C(=O)NCCO)c(Cl)c1 | > 4 mM (inactive)
28 | O=C(Nc1ccc(Cl)cc1)N1CCCC1 | > 4 mM (inactive)
29 | CCOC(=O)c1sc(SC)c2c1CCCC2O (stereo not drawn) | > 4 mM (inactive)
30 | Cn1c(NCc2ccco2)nc2ccccc21 | > 4 mM (inactive)
31 | Nc1ccc2c(C(F)(F)F)cc(=O)oc2c1 | > 4 mM (inactive)
32 | CC1CCN(C(=O)c2cc3ccccc3o2)CC1 | > 4 mM (inactive)
33 | O=C(Nc1nccs1)c1cccnc1 | > 4 mM (inactive)
34 | C[C@H]1OC(O[C@H]2[C@@H](O)CC(O[C@H]3[C@@H](O)C[C@H](O[C@H]4CC[C@]5(C)C6CC[C@]7(C)[C@@H](C8=CC(=O)OC8)[C@@H](O)C[C@]7(O)[C@@H]6CC[C@@H]5C4)O[C@@H]3C)O[C@@H]2C)C[C@H](O)C1O (stereo partly drawn) | > 4 mM (inactive)
35 | CC1/C(=N/O)C[C@@H]2C[C@H]1C2(C)C (stereo partly drawn) | > 4 mM (inactive)
36 | Cc1nc2ccccc2c(=O)n1CCCn1ccnc1 | > 4 mM (inactive)
37 | OC1CCC(C(F)(F)F)CC1 (stereo not drawn) | > 4 mM (inactive)
38 | Cc1nnc(NCCCO)[nH]c1=O | > 4 mM (inactive)
39 | O=c1[nH]cc(NC(=S)N2CCOCC2)c(=O)[nH]1 | > 4 mM (inactive)
40 | Cc1c(F)cccc1NS(=O)(=O)c1ccccc1C#N | > 4 mM (inactive)
41 | NS(=O)(=O)c1ccc(N=C2NC(=O)CS2)cc1 | > 4 mM (inactive)
42 | Cc1nnsc1C(=O)Nc1ccccn1 | > 4 mM (inactive)
43 | Nc1nncn1C(=O)c1c(Cl)cccc1Cl | > 4 mM (inactive)
44 | COC(=O)CCSCC(=O)Nc1nnc(C)s1 | > 4 mM (inactive)
45 | OCC(O)Cc1ccc2c(c1)OCO2 (stereo not drawn) | > 4 mM (inactive)
46 | Cc1cc(C)n(-c2cccc3cccnc23)n1 | > 4 mM (inactive)
47 | O=C(O)c1ccc(-n2ccnc2)cc1 | > 4 mM (inactive)
48 | C(=N\c1nccs1)/c1cccnc1 | > 4 mM (inactive)

Row | SMILES | Kd
49 | CCOC(=O)c1cc(C)n(C)n1 | > 4 mM (inactive)
50 | O=C(c1ccccc1)c1ccc(N2CCNCC2)cc1 | > 4 mM (inactive)
51 | Cc1occc1C(=O)Nc1ccc2c(c1)OCO2 | > 4 mM (inactive)
52 | N#Cc1cnn(Cc2ccc(Cl)cc2)c1N | > 4 mM (inactive)
53 | Nc1cc(F)nc(F)n1 | > 4 mM (inactive)
54 | O=C(/C=C1\SC(=O)NC1=O)NCc1ccccc1 | > 4 mM (inactive)
55 | Cc1cc(C)nc(/N=C(/N)Nc2cccc(F)c2)n1 | > 4 mM (inactive)
56 | COc1cc(OC)c2c(c1)O[C@H](c1ccc(OC)c(OC)c1)[C@@H](O)C2 | > 4 mM (inactive)
57 | O=C1N=c2ccccc2=C1c1sc(=S)[nH]c1O | > 4 mM (inactive)
58 | CCCCCCCCCCCCCc1ccco1 | > 4 mM (inactive)
59 | O=C1CCN(c2ccccc2)N1 | > 4 mM (inactive)
60 | CSc1n[nH]c(NCc2ccccc2)n1 | > 4 mM (inactive)
61 | CCc1cccc(C)c1NC(=O)c1cc(C)oc1C | > 4 mM (inactive)
62 | Cn1c(=O)n(CC(=O)N2CCOCC2)c2ccccc21 | > 4 mM (inactive)
63 | OC12CC3CC(CC(C3)C1)C2 | > 4 mM (inactive)
64 | Cc1ccc(CO)o1 | > 4 mM (inactive)
65 | COc1cccc2onc(N)c12 | > 4 mM (inactive)
66 | CC(=O)c1c(C)nc(-c2cccs2)n1O | > 4 mM (inactive)
67 | OCc1sccc1-n1cccc1 | > 4 mM (inactive)
68 | Cc1nn(-c2ccccc2)nc1CO | > 4 mM (inactive)
69 | COc1ccc(-c2oc3ccccc3c(=O)c2O)cc1OC | > 4 mM (inactive)
70 | Cc1cc(C)n2c(SCc3cccs3)nnc2n1 | > 4 mM (inactive)
71 | O=C1C2CC=CCC2C(=O)N1c1ccccc1O (stereo not drawn) | > 4 mM (inactive)
72 | Cc1nc(-c2ccccc2)ncc1C(=O)O | > 4 mM (inactive)

Row | SMILES | Kd
73 | CC(=O)Oc1cccc2ccc(=O)[nH]c12 | > 4 mM (inactive)
74 | COc1ccc2c(c1OC)C(=O)N(c1ncn[nH]1)C2 | > 4 mM (inactive)
75 | CSc1nsc(SCc2cnc(C)nc2N)n1 | > 4 mM (inactive)
76 | O=C1CNC(=O)/C1=C/c1ccc(O)cc1 | > 4 mM (inactive)
77 | CNC(=O)Nc1cccc(C(F)(F)F)c1 | > 4 mM (inactive)
78 | Cc1ccc(C(=O)N2CCC(C(N)=O)CC2)c(Cl)c1 | > 4 mM (inactive)
79 | Cc1ccccc1NS(=O)(=O)c1ccc(F)cc1 | > 4 mM (inactive)
80 | CCn1c(=O)cc(N2CCC3(CC2)OCCO3)[nH]c1=O | > 4 mM (inactive)
81 | COc1ccc(CN2CCOCC2)c(C)c1C | > 4 mM (inactive)
82 | NCc1n[nH]c(=O)c2ccccc12 | > 4 mM (inactive)
83 | Cc1[nH]n(-c2ccccc2)c(=O)c1[N+](=O)[O-] | > 4 mM (inactive)
84 | Cc1cc(=O)[nH]c(N)n1 | > 4 mM (inactive)
85 | NCc1ccc2c(c1)OCCO2 | > 4 mM (inactive)
86 | Cc1noc(C)c1C(=O)N1CCC2(CC1)OCCO2 | > 4 mM (inactive)
87 | COC(=O)C1[C@H]2C[C@H]3c4[nH]c5ccccc5c4CCN3C[C@@H]2CC[C@@H]1O (stereo partly drawn) | > 4 mM (inactive)
88 | CC1(C)C2CC[C@]3(C)C(C(=O)C=C4[C@@H]5C[C@@](C)(C(=O)O)CC[C@]5(C)CC[C@]43C)[C@@]2(C)CC[C@@H]1O (stereo partly drawn) | > 4 mM (inactive)
89 | C[C@H]1[C@H](C)CC[C@]2(CO)CC[C@]3(C)C(=CCC4[C@@]5(C)CC[C@H](O)C(C)(C)C5CC[C@]43C)[C@H]12 (stereo partly drawn) | > 4 mM (inactive)
90 | O=C(Oc1ccc2c(c1)OCC2=O)c1ccccc1 | > 4 mM (inactive)
91 | OC1CCN(Cc2ccc[nH]2)CC1 | > 4 mM (inactive)
92 | CC(=O)c1cccc(N=C2NC(=O)CS2)c1 | > 4 mM (inactive)
93 | Cc1ccc(OCC(=O)n2cnnc2N)c(C)c1 | > 4 mM (inactive)
94 | COCCn1c(C)cc(O)cc1=O | > 4 mM (inactive)
95 | Cc1noc(C)c1C(=O)NCc1ccco1 | > 4 mM (inactive)
96 | CC(C)C1COc2cc3oc(=O)ccc3cc2O1 (stereo not drawn) | > 4 mM (inactive)

Row | SMILES | Kd
97 | CN1CCN(c2ccc(CN)cc2)CC1 | > 4 mM (inactive)
98 | CC(=O)c1cc2c(cc1O)OC(C)(C)C=C2 | > 4 mM (inactive)
99 | COc1ccccc1-c1noc(-c2ccco2)n1 | > 4 mM (inactive)
100 | CN(C(=O)c1cc2cccnc2n(C)c1=O)c1ccccc1 | > 4 mM (inactive)
101 | Cc1ccc(NC(=O)CN2C(=O)CSC2=O)cc1 | > 4 mM (inactive)
102 | CN1CCC(N2CCOCC2)CC1 | > 4 mM (inactive)
103 | O=C1C=C(Nc2ccccc2O)c2ccccc2C1=O | > 4 mM (inactive)
104 | O=C(O)C1CCN(C(=O)c2cccs2)CC1 | > 4 mM (inactive)
105 | CC(=O)NC(O)C(=O)c1ccccc1 (stereo not drawn) | > 4 mM (inactive)
106 | NC(=O)c1ccc(N2C(=O)C=CC2=O)cc1Cl | > 4 mM (inactive)
107 | CC(=O)Nc1cc(S(=O)(=O)N(C)C)ccc1Cl | > 4 mM (inactive)
108 | OCc1ccc2c(c1)CCO2 | > 4 mM (inactive)
109 | Cc1cc(C(=O)Nc2ccc3c(c2)OCO3)cs1 | > 4 mM (inactive)
110 | COC(=O)c1c(C)c2c(c(C)c1O)OC(=O)c1c(C)c(Cl)c(O)c(Cl)c1O2 | > 4 mM (inactive)
111 | CS(=O)(=O)c1nncn1-c1ccccc1 | > 4 mM (inactive)
112 | COc1ccc(Cl)cc1-c1nc(-c2ccncc2)no1 | > 4 mM (inactive)
113 | CC1(C)Cc2nc3n[nH]c(N)c3cc2CO1 | > 4 mM (inactive)
114 | O=C(Nc1ccccc1)Nc1ccccn1 | > 4 mM (inactive)
115 | C[C@@H]1CC[C@]2(C(=O)O)CC[C@]3(C)C(=CCC4[C@@]5(C)CC[C@H](O)C(C)(C)C5CC[C@]43C)C2[C@H]1C (stereo partly drawn) | > 4 mM (inactive)
116 | C#CCCCCCCCCCCCC(O)CC(O)COC(C)=O (stereo not drawn) | > 4 mM (inactive)
117 | CC(C)=CCOc1c2occc2cc2ccc(=O)oc12 | > 4 mM (inactive)
118 | Cc1ccc(-n2[nH]c(C)cc2=O)cc1 | > 4 mM (inactive)
